Reference: patent US20230234943A1, “TREX1 INHIBITORS AND USES THEREOF” (Tempest Therapeutics, Inc., priority 2020, published 2023)

Target: T1, Human TREX1 enzyme (amino acids 1-242) (Homo sapiens, UniProt Q9NSU2)
T1 construct: Human TREX1 enzyme (amino acids 1-242)
T1 sequence (Q9NSU2 1-242): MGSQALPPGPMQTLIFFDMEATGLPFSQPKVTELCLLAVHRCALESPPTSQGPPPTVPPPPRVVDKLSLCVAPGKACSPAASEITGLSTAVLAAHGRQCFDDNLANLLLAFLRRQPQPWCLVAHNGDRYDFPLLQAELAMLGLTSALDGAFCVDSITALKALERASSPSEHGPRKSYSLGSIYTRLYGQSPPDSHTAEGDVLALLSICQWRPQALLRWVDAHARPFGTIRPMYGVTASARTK
Assay: Human TREX1 enzymatic assay with dsDNA native oligonucleotide (Picogreen fluorescence)
Assay type: biochemical
Settings: 2 mM dithiothreitol in assay buffer; 50 nM dsDNA oligonucleotide; 30 min preincubation at 25° C.; read-out: TREX1/Human + DTT IC50 AVG
Method: Example A. Human TREX1 Enzymatic Assay with dsDNA Native Oligonucleotide
Human TREX1 enzyme (amino acids 1-242) was diluted in assay buffer (20 mM Tris pH 7.7, 5 mM MgCl2, 0.01% human serum albumin, 0.01% Brij™-35, 2 mM dithiothreitol) to a final concentration of 0.8 nM to 0.16 nM and added to a 96-well low-binding polypropylene plate. Test compounds were diluted in DMSO to 50× concentration (final DMSO concentration in reaction mixture of 2%) and added to the wells with a concentration ranging from 300 μM to 13 nM or 30 μM to 1.5 nM. The reaction mixtures were incubated for 30 minutes at 25° C. and a solution of annealed dsDNA oligonucleotide (5′-[…]-3′ and Comp: 5′-[…]-3′) was added to a final concentration of 50 nM. The reaction mixtures were incubated at 25° C. for 5-15 minutes and subsequently quenched by transferring part of the assay reaction to a solution of 100 mM ethylenediaminetetraacetic acid and 1:100 Picogreen™ (final concentration of […]) in a black plate with an opaque bottom. The fluorescence ([…]) was measured using a Molecular Devices SpectraMax plate reader. Wells containing oligonucleotide but no TREX1 enzyme were used as negative controls. Wells containing oligonucleotide, TREX1 enzyme, and DMSO were used as positive controls.

Structure (SMILES)	IC50 [µM]
COc1cc(-c2nc3cc(N4CCC(N(C)C)CC4)ccc3[nH]2)cc(O)c1O [Example 74, 5-(5-(4-(dimethylamino)piperidin-1-yl)-1H-benzo[d]imidazol-2-yl)-3-methoxybenzene-1,2-diol]	10 to 100
COc1cc(-c2nc3c(N4CCOCC4)cncc3[nH]2)cc(O)c1O [Example 76, 3-methoxy-5-(7-morpholino-3H-imidazo[4,5-c]pyridin-2-yl)benzene-1,2-diol]	10 to 100
COc1cc(-c2nc3ccncc3[nH]2)c(C)c(O)c1O [Example 78, 4-(3H-imidazo[4,5-c]pyridin-2-yl)-6-methoxy-3-methylbenzene-1,2-diol]	10 to 100
COc1cc(-c2nc3nc(N4CCOCC4)ncc3[nH]2)cc(O)c1O [Example 80, 3-methoxy-5-(2-morpholino-7H-purin-8-yl)benzene-1,2-diol]	> 100
COc1cc(-c2nc3cc(N4CCN(C(=O)c5ccc6ccccc6c5)CC4)ccc3[nH]2)cc(O)c1O [Example 81, (4-(2-(3,4-dihydroxy-5-methoxyphenyl)-1H-benzo[d]imidazol-5-yl)piperazin-1-yl)(naphthalen-2-yl)methanone]	> 100
COc1cc(-c2nc3cc(N4CCN(Cc5ccc6ccccc6c5)CC4)ccc3[nH]2)cc(O)c1O [Example 82, 3-methoxy-5-(5-(4-(naphthalen-2-ylmethyl)piperazin-1-yl)-1H-benzo[d]imidazol-2-yl)benzene-1,2-diol]	> 100
COc1cc(-c2nc3ccc(N4CCOCC4)cc3n2C2CCOC2)cc(O)c1O (stereo not shown) [Example 83, 3-methoxy-5-(6-morpholino-1-(tetrahydrofuran-3-yl)-1H-benzo[d]imidazol-2-yl)benzene-1,2-diol]	10 to 100
COc1cc(-c2nc3cc(N4CCN(C(=O)c5ccc(Cl)cc5)CC4)ccc3[nH]2)cc(O)c1O [Example 84, (4-chlorophenyl)(4-(2-(3,4-dihydroxy-5-methoxyphenyl)-1H-benzo[d]imidazol-5-yl)piperazin-1-yl)methanone]	> 100
COc1ccc(C(=O)N2CCN(c3ccc4[nH]c(-c5cc(O)c(O)c(OC)c5)nc4c3)CC2)cc1 [Example 85, (4-(2-(3,4-dihydroxy-5-methoxyphenyl)-1H-benzo[d]imidazol-5-yl)piperazin-1-yl)(4-methoxyphenyl)methanone]	1 to 10

Now from value to molecule:

IC50 [µM]	Structure (SMILES)
10 to 100	COc1cc(-c2nc3cc(N4CCN(C(C)C)CC4)ccc3[nH]2)cc(O)c1O [Example 72, 5-(5-(4-isopropylpiperazin-1-yl)-1H-benzo[d]imidazol-2-yl)-3-methoxybenzene-1,2-diol]
> 100	COc1cc(-c2nc3cc(N4CCN(c5ccccn5)CC4)ccc3[nH]2)cc(O)c1O [Example 73, 3-methoxy-5-(5-(4-(pyridin-2-yl)piperazin-1-yl)-1H-benzo[d]imidazol-2-yl)benzene-1,2-diol]
> 100	COc1cc(-c2nc3cc(C4CCCCC4)ccc3[nH]2)cc(O)c1O [Example 75, 5-(5-cyclohexyl-1H-benzo[d]imidazol-2-yl)-3-methoxybenzene-1,2-diol]
10 to 100	COc1cc(-c2nc3ccncc3s2)cc(O)c1O [Example 77, 3-methoxy-5-(thiazolo[5,4-c]pyridin-2-yl)benzene-1,2-diol]
> 100	COc1cc(-c2nc3ccncc3[nH]2)c(-c2cccnc2)c(O)c1O [Example 79, 4-(3H-imidazo[4,5-c]pyridin-2-yl)-6-methoxy-3-(pyridin-3-yl)benzene-1,2-diol]
1 to 10	COc1ccccc1C(=O)N1CCN(c2ccc3[nH]c(-c4cc(O)c(O)c(OC)c4)nc3c2)CC1 [Example 86, (4-(2-(3,4-dihydroxy-5-methoxyphenyl)-1H-benzo[d]imidazol-5-yl)piperazin-1-yl)(2-methoxyphenyl)methanone]
> 100	COc1cc(-c2nc3cc(N4CCN(S(=O)(=O)c5ccccc5)CC4)ccc3[nH]2)cc(O)c1O [Example 87, 3-methoxy-5-(5-(4-(phenylsulfonyl)piperazin-1-yl)-1H-benzo[d]imidazol-2-yl)benzene-1,2-diol]
